The first data set is described as follows: The compound was evaluated for rate constant at 70 deg. C. The format is ADME.
`O=[N+]([O-])c1ccc(S(=O)(=O)N2CC#Cc3ccccc3C#CCC2)cc1`: the Rate constant turned out to be 0.0143 h⁻¹.

On to `O=C(c1ccc([N+](=O)[O-])cc1)N1CC#Cc2ccccc2C#CCC1`, for which the Rate constant stood at 0.0051 h⁻¹.

In turn, `O=C(c1ccccc1)N1CC#Cc2ccccc2C#CCC1` displayed a Rate constant of 0.0037 h⁻¹.

`O=[N+]([O-])c1ccc(S(=O)(=O)N2CC#Cc3ccccc3C#CCC2)c([N+](=O)[O-])c1`: the Rate constant was 0.0244 h⁻¹.

The next data set in a line: The compound was evaluated for half life at 70 deg. C. The format is ADME.
Broadly, the half-life is how long it takes for the measured level to halve. In the case of `O=[N+]([O-])c1ccc(S(=O)(=O)N2CC#Cc3ccccc3C#CCC2)cc1`, the half-life was 49 h.

For `O=C(c1ccc([N+](=O)[O-])cc1)N1CC#Cc2ccccc2C#CCC1`, the half-life is 136 h.

`O=C(c1ccccc1)N1CC#Cc2ccccc2C#CCC1` had a half-life of 188 h. The half-life values of the last two molecules are within 1.5-fold of each other.

`O=[N+]([O-])c1ccc(S(=O)(=O)N2CC#Cc3ccccc3C#CCC2)c([N+](=O)[O-])c1` gave a half-life of 28 h.
